# Reference: patent publication US20250134855A1, “CO[…] AND METHODS OF USING SAME” (LYKOS THERAPEUTICS, INC., priority 2022, published 2025)
# Like-named read-outs stand apart in the source and are kept apart here.
# Key:
# [1] = tested on: CYP2B6, CYP2D6, CYP2C19, CYP1A2, CYP3A4, CYP2C9, CYP2C8; experiment: CYP enzymes metabolizing MDMA; settings: less contribution by CYP2C19, CYP1A2, CYP3A4, CYP2C9, and CYP2C8
# [2] = tested on: participants with PTSD of moderate or greater severity; experiment: MAPP2 Phase 3: Sheehan Disability Scale (SDS); format: in vivo, human
# From the text: (§1) FIG. 36 and FIG. 37 show the time course of improvement in Clinician Administered PTSD Scale for DSM-5 (CAPS-5) total severity score versus placebo. Each show a treatment difference between MDMA and placebo after 3 medication sessions with psychological intervention. […] Between the second and third treatment sessions, the difference between the groups appeared to continue to increase in both studies. The primary efficacy measure was change from baseline in the CAPS-5 total severity score at 18 weeks, which was evaluated 2 months after the final dosing session. The CAPS-5 is a 30-item, clinician-rated scale used to assess severity of PTSD symptoms and diagnostic status according to DSM-5 criteria, as described herein. Scores on the CAPS 5 range from 0 to 80, with higher scores indicating more severe PTSD symptoms. In both studies, a secondary efficacy measure was change from baseline in Sheehan Disability Scale (SDS) mean item scores at 18 weeks. The modified SDS is a 3-item, clinician-rated scale measuring the degree of functional impairment in work, family, and social life. Scores on the SDS mean items range from 0 to 10, with higher scores indicating more functional impairment. In these studies, the efficacy assessments were administered by blinded independent raters 18 to 30 days after medication sessions 1 and 2.
# (§2) MAPP2 was a Phase 3 randomized, placebo-controlled, 2-arm, double-blind, multi-site study conducted to investigate the efficacy and safety of MDMA-AT in participants with PTSD of moderate or greater severity. This study included 3 experimental sessions of therapy combined with either MDMA or placebo. During Experimental Session 1, participants received a split dose of 120 mg (80 mg+40 mg). Participants received an escalated split dose of 180 mg during Experimental Sessions 2 and 3 unless there were tolerability issues or the participant declined.
# (§3) The primary outcome measure, the CAPS-5, evaluated changes in PTSD symptom severity and the secondary outcome measure, the SDS, evaluated changes in functional impairment. Both measures were assessed by a blinded centralized language-specific IR pool.
# The de jure estimand of treatment efficacy was used to determine the effect of MDMA-AT on SDS total score in the mITT analysis set.
# MATE2-K = MATE2-K (Homo sapiens, UniProt Q86VL8); experiment: Transporter inhibition, MATE2-K
# MATE2-K, sequence (Q86VL8 1-566 isoform Q86VL8-3): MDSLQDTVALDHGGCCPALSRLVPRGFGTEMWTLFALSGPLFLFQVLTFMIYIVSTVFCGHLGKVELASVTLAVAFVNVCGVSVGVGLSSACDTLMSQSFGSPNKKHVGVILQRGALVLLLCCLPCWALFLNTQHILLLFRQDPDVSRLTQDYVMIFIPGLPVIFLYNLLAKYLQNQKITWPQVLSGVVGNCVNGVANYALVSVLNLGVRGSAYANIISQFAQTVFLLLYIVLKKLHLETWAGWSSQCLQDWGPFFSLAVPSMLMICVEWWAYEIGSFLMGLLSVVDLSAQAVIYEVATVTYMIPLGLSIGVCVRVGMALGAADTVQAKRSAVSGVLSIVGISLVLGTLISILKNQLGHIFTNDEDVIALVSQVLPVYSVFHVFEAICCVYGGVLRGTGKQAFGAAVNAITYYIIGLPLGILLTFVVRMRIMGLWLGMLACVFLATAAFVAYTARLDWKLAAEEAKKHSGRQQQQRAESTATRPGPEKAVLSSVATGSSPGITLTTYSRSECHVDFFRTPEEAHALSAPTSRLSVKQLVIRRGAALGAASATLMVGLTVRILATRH
# OAT3 = OAT3 (Homo sapiens, UniProt Q8TCC7); experiment: Transporter inhibition, OAT3
# OAT3, sequence (Q8TCC7 whole entry): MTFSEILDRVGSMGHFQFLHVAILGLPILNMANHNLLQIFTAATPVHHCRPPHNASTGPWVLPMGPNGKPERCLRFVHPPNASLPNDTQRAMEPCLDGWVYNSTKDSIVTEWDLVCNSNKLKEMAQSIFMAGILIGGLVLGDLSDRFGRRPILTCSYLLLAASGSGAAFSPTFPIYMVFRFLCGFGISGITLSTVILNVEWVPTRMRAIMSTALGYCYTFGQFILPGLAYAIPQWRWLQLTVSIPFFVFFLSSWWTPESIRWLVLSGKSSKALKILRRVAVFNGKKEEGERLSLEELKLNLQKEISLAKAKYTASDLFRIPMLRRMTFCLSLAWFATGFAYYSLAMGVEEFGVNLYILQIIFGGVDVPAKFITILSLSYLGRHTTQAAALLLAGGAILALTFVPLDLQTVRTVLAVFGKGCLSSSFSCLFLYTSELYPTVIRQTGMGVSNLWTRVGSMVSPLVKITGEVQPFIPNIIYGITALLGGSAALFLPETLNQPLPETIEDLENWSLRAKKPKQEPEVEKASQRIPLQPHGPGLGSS
# dogs = experiment: 28-day repeat-dose toxicity, weekly oral, dogs; settings: any dose
# BCRP = BCRP (Homo sapiens, UniProt Q9UNQ0); experiment: Transporter substrate assessment, BCRP; settings: not told
# BCRP, sequence (Q9UNQ0 whole entry): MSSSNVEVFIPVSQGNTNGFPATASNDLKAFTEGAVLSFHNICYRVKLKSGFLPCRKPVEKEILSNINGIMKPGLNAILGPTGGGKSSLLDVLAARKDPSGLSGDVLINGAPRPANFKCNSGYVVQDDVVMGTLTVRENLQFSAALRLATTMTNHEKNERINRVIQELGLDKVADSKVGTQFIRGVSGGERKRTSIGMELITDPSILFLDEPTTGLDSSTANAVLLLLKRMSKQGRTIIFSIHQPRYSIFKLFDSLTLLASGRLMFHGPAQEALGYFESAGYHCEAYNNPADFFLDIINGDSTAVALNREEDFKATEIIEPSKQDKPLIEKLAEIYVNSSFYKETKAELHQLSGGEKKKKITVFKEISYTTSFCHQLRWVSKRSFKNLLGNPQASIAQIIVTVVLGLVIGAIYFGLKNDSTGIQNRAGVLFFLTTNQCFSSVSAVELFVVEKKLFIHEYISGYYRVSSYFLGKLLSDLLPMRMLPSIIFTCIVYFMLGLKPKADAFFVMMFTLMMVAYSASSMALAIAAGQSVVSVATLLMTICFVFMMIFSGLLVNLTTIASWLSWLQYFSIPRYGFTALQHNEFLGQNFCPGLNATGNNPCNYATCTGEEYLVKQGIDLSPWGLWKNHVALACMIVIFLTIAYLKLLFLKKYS
# [3] = tested on: participants with PTSD of moderate or greater severity; experiment: MAPP2 Phase 3: CAPS-5 total severity score; format: in vivo, human; settings: for Change from Baseline in CAPS-5 Total Severity Score, LS Mean for Treatment Difference / Change from Baseline in CAPS-5 Total Severity Score, LS Mean / CAPS-5 Total Severity Score, Mean / CAPS-5 Total Severity Score, Median / Change from Baseline in CAPS-5 Total Severity Score, Mean / Change from Baseline in CAPS-5 Total Severity Score, Median / Loss of Diagnosis, % / Non-Responder, % / Remission, % / Responder (10-point reduction in CAPS-5 Total Severity Score), %: MAPP2, mITT; for Change from Baseline in CAPS-5 Total Severity Score, LS Mean for Treatment Difference: vs placebo; for Change from Baseline in CAPS-5 Total Severity Score, LS Mean / CAPS-5 Total Severity Score, Mean / CAPS-5 Total Severity Score, Median / Change from Baseline in CAPS-5 Total Severity Score, Mean / Change from Baseline in CAPS-5 Total Severity Score, Median: de jure
# From the text: as §1, §2, §3
# A de jure estimand of treatment efficacy was used to estimate the causal effect of MDMA-AT on PTSD symptom severity as measured by the change from Baseline to Visit 19 in CAPS-5 total severity scores in the mITT analysis set. […] Differences in treatment effect among demographic, dissociative sub-type, and overnight stay subgroups were not observed.
# [4] = cited from earlier work
# OATP1B1 = OATP1B1 (Homo sapiens, UniProt Q9Y6L6); experiment: Transporter inhibition, OATP1B1
# OATP1B1, sequence (Q9Y6L6 whole entry): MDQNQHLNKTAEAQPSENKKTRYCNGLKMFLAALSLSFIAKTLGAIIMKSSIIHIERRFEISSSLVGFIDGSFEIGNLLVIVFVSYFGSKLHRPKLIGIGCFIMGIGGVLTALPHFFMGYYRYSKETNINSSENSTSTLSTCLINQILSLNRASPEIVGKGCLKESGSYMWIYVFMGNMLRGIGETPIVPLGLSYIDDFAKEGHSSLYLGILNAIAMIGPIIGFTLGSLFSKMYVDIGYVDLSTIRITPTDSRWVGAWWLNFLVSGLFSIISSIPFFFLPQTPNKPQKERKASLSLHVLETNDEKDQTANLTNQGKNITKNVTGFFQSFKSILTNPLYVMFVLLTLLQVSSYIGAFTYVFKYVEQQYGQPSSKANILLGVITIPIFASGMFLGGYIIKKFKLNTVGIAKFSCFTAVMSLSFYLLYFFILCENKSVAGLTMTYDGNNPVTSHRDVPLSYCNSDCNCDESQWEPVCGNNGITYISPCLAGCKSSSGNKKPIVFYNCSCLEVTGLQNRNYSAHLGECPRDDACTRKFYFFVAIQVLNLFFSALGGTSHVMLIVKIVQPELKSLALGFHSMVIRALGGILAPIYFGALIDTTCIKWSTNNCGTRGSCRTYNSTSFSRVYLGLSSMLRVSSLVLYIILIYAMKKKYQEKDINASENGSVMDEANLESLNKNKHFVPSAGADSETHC
# MDR1 = MDR1 (Homo sapiens, UniProt P08183); experiment: Transporter inhibition, MDR1
# MDR1, sequence (P08183 whole entry): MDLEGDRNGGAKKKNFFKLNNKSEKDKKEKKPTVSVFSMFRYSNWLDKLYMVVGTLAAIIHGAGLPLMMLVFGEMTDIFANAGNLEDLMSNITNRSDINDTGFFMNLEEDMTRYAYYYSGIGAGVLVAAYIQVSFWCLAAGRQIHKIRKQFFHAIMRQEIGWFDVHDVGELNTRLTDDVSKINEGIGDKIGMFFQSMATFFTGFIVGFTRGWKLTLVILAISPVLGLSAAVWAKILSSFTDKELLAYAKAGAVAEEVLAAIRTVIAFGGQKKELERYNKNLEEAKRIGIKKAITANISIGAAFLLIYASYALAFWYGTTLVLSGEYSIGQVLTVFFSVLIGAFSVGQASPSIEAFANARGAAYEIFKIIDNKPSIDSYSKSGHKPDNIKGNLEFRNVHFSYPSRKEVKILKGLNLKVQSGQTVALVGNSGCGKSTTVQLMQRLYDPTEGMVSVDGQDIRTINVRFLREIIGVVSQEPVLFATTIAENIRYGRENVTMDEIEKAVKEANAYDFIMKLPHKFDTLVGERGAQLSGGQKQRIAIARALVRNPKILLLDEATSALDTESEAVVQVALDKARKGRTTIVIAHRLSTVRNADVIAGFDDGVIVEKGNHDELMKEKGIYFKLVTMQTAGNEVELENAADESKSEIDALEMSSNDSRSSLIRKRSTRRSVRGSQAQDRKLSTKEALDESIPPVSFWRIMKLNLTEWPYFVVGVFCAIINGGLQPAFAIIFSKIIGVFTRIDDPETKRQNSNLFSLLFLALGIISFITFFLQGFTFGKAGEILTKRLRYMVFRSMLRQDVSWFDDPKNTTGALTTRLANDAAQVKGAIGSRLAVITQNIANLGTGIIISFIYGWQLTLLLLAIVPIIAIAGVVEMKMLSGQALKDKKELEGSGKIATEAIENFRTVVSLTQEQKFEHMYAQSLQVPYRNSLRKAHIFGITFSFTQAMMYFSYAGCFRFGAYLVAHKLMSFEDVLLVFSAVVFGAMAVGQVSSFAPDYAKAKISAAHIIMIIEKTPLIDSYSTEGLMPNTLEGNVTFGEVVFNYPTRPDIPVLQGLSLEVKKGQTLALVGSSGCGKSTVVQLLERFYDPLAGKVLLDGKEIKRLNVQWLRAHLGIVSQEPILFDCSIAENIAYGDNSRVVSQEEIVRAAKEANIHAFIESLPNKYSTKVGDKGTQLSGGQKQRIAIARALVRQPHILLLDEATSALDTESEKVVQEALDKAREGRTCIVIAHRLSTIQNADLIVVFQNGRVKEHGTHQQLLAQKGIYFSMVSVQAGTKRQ
# [5] = MAPP2, mITT, Baseline (Visit 3)
# [6] = MAPP2, mITT, Baseline to Visit 19
# [7] = MAPP2, mITT, Visit 19 (Primary Endpoint)
# [8] = MAPP2, MMRM, de jure estimand, mITT
# [9] = end of treatment, 52 patients (study not given)
# [10] = Baseline to Primary Outcome T4 (Visit 19)
# [11] = Primary Outcome CAPS-5 T4 (Visit 19)
structure (smiles),measurement,setting,value
"CNC(C)Cc1ccc2c(c1)OCO2 (stereo not drawn) [MDMA, 3,4-methylenedioxymethamphetamine]",metabolizing CYP enzymes,[1],metabolized primarily by CYP2B6 and CYP2D6
same,"SDS Total Score CFB, LSMean","[2]; MAPP2, mITT, MMRM, Visit 19",−3.31
same,"SDS Total Score CFB, LSMean for Treatment Difference","[2]; MAPP2, mITT, MMRM, vs placebo with therapy, Visit 19",−1.20
same,"SDS Total Score, Mean",[2]; [5],6.0
same,"SDS Total Score, Median",[2]; [5],6.3
same,"SDS Total Score CFB, Mean",[2]; [6],−3.3
same,"SDS Total Score CFB, Median",[2]; [6],−4.0
same,"SDS Total Score, Mean","[2]; MAPP2, mITT, Visit 8",4.1
same,"SDS Total Score, Median","[2]; MAPP2, mITT, Visit 8",4.3
same,"SDS Total Score, Mean","[2]; MAPP2, mITT, Visit 13",2.9
same,"SDS Total Score, Median","[2]; MAPP2, mITT, Visit 13",2.7
same,"SDS Total Score, Mean",[2]; [7],2.7
same,"SDS Total Score, Median",[2]; [7],2.3
same,reduction in SDS total scores,[2]; [8],−3.31
same,SDS Remission (SDS mean item score < 3),[2]; [9],(55.8) %
same,"SDS Remission (SDS mean item score < 3), n",[2]; [9],29
same,SDS Responder (4 point or greater reduction from baseline SDS mean item score),[2]; [9],(53.8) %
same,"SDS Responder (4 point or greater reduction from baseline SDS mean item score), n",[2]; [9],28
same,inhibition of MATE2-K,MATE2-K,not an inhibitor
same,inhibition of OAT3,OAT3,not an inhibitor
same,neurohistopathology of the brain,dogs,No morphologic changes
same,substrate of BCRP,BCRP,not a substrate
same,onset of treatment efficacy (CAPS-5 versus placebo),"[3]; FIG. 36 and FIG. 37, both studies",after the second session
same,"Change from Baseline in CAPS-5 Total Severity Score, LS Mean for Treatment Difference","[3]; MMRM, T2 (Visit 8)",−4.14
same,"Change from Baseline in CAPS-5 Total Severity Score, LS Mean for Treatment Difference","[3]; MMRM, T3 (Visit 13)",−7.98
same,"Change from Baseline in CAPS-5 Total Severity Score, LS Mean for Treatment Difference","[3]; MMRM, T4 (Visit 19)",−8.91
same,"Change from Baseline in CAPS-5 Total Severity Score, LS Mean","[3]; MMRM, Baseline to Primary Outcome T4 (Visit 19)",−23.69
same,"Change from Baseline in CAPS-5 Total Severity Score, LS Mean","[3]; MMRM, Baseline to T2 (Visit 8)",−11.36
same,"Change from Baseline in CAPS-5 Total Severity Score, LS Mean","[3]; MMRM, Baseline to T3 (Visit 13)",−18.58
same,"CAPS-5 Total Severity Score, Mean",[3]; Baseline CAPS-5 T1 (Visit 3),39.4
same,"CAPS-5 Total Severity Score, Median",[3]; Baseline CAPS-5 T1 (Visit 3),39.0
same,"Change from Baseline in CAPS-5 Total Severity Score, Mean",[3]; [10],−23.5
same,"Change from Baseline in CAPS-5 Total Severity Score, Median",[3]; [10],−25.0
same,"Change from Baseline in CAPS-5 Total Severity Score, Mean",[3]; Baseline to T2 (Visit 8),−11.3
same,"Change from Baseline in CAPS-5 Total Severity Score, Median",[3]; Baseline to T2 (Visit 8),−12.0
same,"Change from Baseline in CAPS-5 Total Severity Score, Mean",[3]; Baseline to T3 (Visit 13),−18.5
same,"Change from Baseline in CAPS-5 Total Severity Score, Median",[3]; Baseline to T3 (Visit 13),−20.0
same,"CAPS-5 Total Severity Score, Mean",[3]; CAPS-5 T2 (Visit 8),28.1
same,"CAPS-5 Total Severity Score, Median",[3]; CAPS-5 T2 (Visit 8),30.0
same,"CAPS-5 Total Severity Score, Mean",[3]; CAPS-5 T3 (Visit 13),20.9
same,"CAPS-5 Total Severity Score, Median",[3]; CAPS-5 T3 (Visit 13),19.0
same,"CAPS-5 Total Severity Score, Mean",[3]; [11],15.8
same,"CAPS-5 Total Severity Score, Median",[3]; [11],15.5
same,"Loss of Diagnosis, %",[3]; CAPS-5 T2 (Visit 8),(39.6) %
same,"Non-Responder, %",[3]; CAPS-5 T2 (Visit 8),(47.2) %
same,"Remission, %",[3]; CAPS-5 T2 (Visit 8),(9.4) %
same,"Responder (10-point reduction in CAPS-5 Total Severity Score), %",[3]; CAPS-5 T2 (Visit 8),(52.8) %
same,"Loss of Diagnosis, %",[3]; CAPS-5 T3 (Visit 13),(60.4) %
same,"Non-Responder, %",[3]; CAPS-5 T3 (Visit 13),(22.6) %
same,"Remission, %",[3]; CAPS-5 T3 (Visit 13),(26.4) %
same,"Responder (10-point reduction in CAPS-5 Total Severity Score), %",[3]; CAPS-5 T3 (Visit 13),(77.4) %
same,"Loss of Diagnosis, %",[3]; [11],(71.2) %
same,"Non-Responder, %",[3]; [11],(13.5) %
same,"Remission, %",[3]; [11],(46.2) %
same,"Responder (10-point reduction in CAPS-5 Total Severity Score), %",[3]; [11],(86.5) %
same,change from Baseline to Visit 19 in CAPS-5 total severity scores,[3]; [8],−23.69
same,no longer met PTSD diagnostic criteria,"[3]; MAPP2, Visit 19",71.2%
same,remission (CAPS-5 ≤11 and no longer meeting PTSD diagnostic criteria),"[3]; MAPP2, Visit 19",46.2%
same,responders (10-point reduction in CAPS-5 total severity score),"[3]; MAPP2, Visit 19",86.5%
same,unchanged MDMA excreted in urine,[4]; oral 1.0 mg/kg MDMA,8%
same,unchanged MDMA excreted in urine,[4]; oral 1.6 mg/kg MDMA,11%
same,inhibition of OATP1B1,OATP1B1,not an inhibitor
same,inhibition of MDR1,MDR1,not an inhibitor
